From US20120087968A1, “Antimicrobial Packaging Material and Methods of Making and Using the Same” (CRYOVAC, INC., priority 2010, published 2012)

Experiments:
[1] = system: E. coli counts / microbial contamination in beef purge; assay: Beef purge study of LAE materials (aerobic plate count); type: cell-based; settings: 0.5 g in 10 mL beef purge
Experimental: About 30 mL of purge was isolated from two beef tenderloin packages and transferred to three test tubes (10 mL/tube). As set forth in Table 5 below, 0.5 g LAE HCl was added to the purge in sample 5 and 0.5 g LAE monolaurate was added to the purge in sample 6. Sample 7 was the positive control and contained no LAE derivative.
The samples were mixed using a vortex mixer and E. coli counts were determined by plating about 1.0 mL on aerobic plate count 3M Petrifilm™ plates for time 0 readings. The test tubes were then stored in a refrigerator (4° C.) and E. coli counts were determined by plating about 1.0 mL on aerobic plate count 3M Petrifilm™ at 24 and 48 hours. As set forth in Table 6, below, both LAE HCl and LAE Monolaurate eliminated over 99% of the microbial contamination at the 24 and 48 hour time points.

[2] = system: E. coli (strain ATCC 4157); assay: Nutrient broth study of LAE materials (aerobic plate count of E. coli culture); type: cell-based; settings: 0.5 g in 50 mL E. coli broth culture; for Aerobe Count Trial 1 CFU/g / Aerobe Count Trial 1 Log CFU/g / Aerobe Count Trial 1 Mean Log CFU/g / Aerobe Count Trial 2 CFU/g / Aerobe Count Trial 2 Log CFU/g / Aerobe Count Trial 2 Mean Log CFU/g: 45° C.; for growth of bacteria: over the 48 hour time period
Experimental: A culture of Difco nutrient broth (available from Weber Scientific, Hamilton, N.J., United States of America) and E. coli (strain ATCC® 4157™ KWIK STIK™, available from MicroBioLogics, Inc., St. Cloud, Minn., United States of America) was prepared by adding 1 tube of the E. coli to 400 mL of broth medium and incubating overnight at 37° C. Particularly, sample 1 was the positive control, sample 2 contained 0.5 g LAE HCl, sample 3 contained 0.5 g LAE monolaurate, and Sample 4 was the negative control.
Samples 1-4 were incubated at 45° C. and the number of E. coli counts was determined by plating about 1.0 mL of each sample onto aerobic plate count 3M Petrifilm™ plates (available from 3M Microbiology Products, St. Paul, Minn., United States of America) at 0, 24, and 48 hour time points. The experiments were conducted in duplicate.

SMILES	% Reduction ([1]; 0 hrs)	Avg. CFU/g ([1]; 0 hrs)	Log CFU/g Mean ([1]; 0 hrs)	% Reduction ([1]; 24 hrs at 4° C.)	Avg. CFU/g ([1]; 24 hrs at 4° C.)	Log CFU/g Mean ([1]; 24 hrs at 4° C.)	% Reduction ([1]; 48 hrs at 4° C.)	Avg. CFU/g ([1]; 48 hrs at 4° C.)	Log CFU/g Mean ([1]; 48 hrs at 4° C.)	Aerobe Count Trial 1 CFU/g ([2]; 0 hrs)	Aerobe Count Trial 1 Log CFU/g ([2]; 0 hrs)	Aerobe Count Trial 1 Mean Log CFU/g ([2]; 0 hrs)	Aerobe Count Trial 2 CFU/g ([2]; 0 hrs)	Aerobe Count Trial 2 Log CFU/g ([2]; 0 hrs)	Aerobe Count Trial 2 Mean Log CFU/g ([2]; 0 hrs)	Aerobe Count Trial 1 CFU/g ([2]; 24 hrs)	Aerobe Count Trial 1 Log CFU/g ([2]; 24 hrs)	Aerobe Count Trial 1 Mean Log CFU/g ([2]; 24 hrs)	Aerobe Count Trial 2 CFU/g ([2]; 24 hrs)	Aerobe Count Trial 2 Log CFU/g ([2]; 24 hrs)	further results
CCCCCCCCCCCC(=O)N[C@@H](CCCNC(=N)N)C(=O)OCC.CCCCCCCCCCCC(=O)O [LAE monolaurate, ethyl n-lauroyl-L-arginate laurate complex]	8.798%	3.890E+04 CFU/g	4.59 Log CFU/g	90.880%	8.913E+04 CFU/g	4.95 Log CFU/g	99.960%	2.818E+03 CFU/g	3.45 Log CFU/g	1 CFU/g	0.00 Log CFU/g	0 Log CFU/g	1 CFU/g	0.00 Log CFU/g	0 Log CFU/g	1 CFU/g	0.00 Log CFU/g	0 Log CFU/g	1 CFU/g	0.00 Log CFU/g	Aerobe Count Trial 2 Mean Log CFU/g ([2]; 24 hrs): 0 Log CFU/g; Aerobe Count Trial 1 CFU/g ([2]; 48 hrs): 1 CFU/g; Aerobe Count Trial 1 Log CFU/g ([2]; 48 hrs): 0.00 Log CFU/g; Aerobe Count Trial 1 Mean Log CFU/g ([2]; 48 hrs): 0 Log CFU/g; Aerobe Count Trial 2 CFU/g ([2]; 48 hrs): 1 CFU/g; Aerobe Count Trial 2 Log CFU/g ([2]; 48 hrs): 0.00 Log CFU/g; Aerobe Count Trial 2 Mean Log CFU/g ([2]; 48 hrs): 0 Log CFU/g; growth of bacteria [2]: no growth of bacteria
CCCCCCCCCCCC(=O)N[C@@H](CCCN=C(N)N)C(=O)OCC.Cl [LAE HCl, ethyl n-lauroyl-L-arginate hydrochloride salt]	99.766%	<1.000E+02 CFU/g	<2.00 Log CFU/g	99.990%	<1.000E+02 CFU/g	<2.00 Log CFU/g	99.999%	<1.000E+02 CFU/g	<2.00 Log CFU/g	1 CFU/g	0.00 Log CFU/g	0 Log CFU/g	1 CFU/g	0.00 Log CFU/g	0 Log CFU/g	1 CFU/g	0.00 Log CFU/g	0 Log CFU/g	1 CFU/g	0.00 Log CFU/g	Aerobe Count Trial 2 Mean Log CFU/g ([2]; 24 hrs): 0 Log CFU/g; Aerobe Count Trial 1 CFU/g ([2]; 48 hrs): 1 CFU/g; Aerobe Count Trial 1 Log CFU/g ([2]; 48 hrs): 0.00 Log CFU/g; Aerobe Count Trial 1 Mean Log CFU/g ([2]; 48 hrs): 0 Log CFU/g; Aerobe Count Trial 2 CFU/g ([2]; 48 hrs): 1 CFU/g; Aerobe Count Trial 2 Log CFU/g ([2]; 48 hrs): 0.00 Log CFU/g; Aerobe Count Trial 2 Mean Log CFU/g ([2]; 48 hrs): 0 Log CFU/g; growth of bacteria [2]: no growth of bacteria
